Data reported in patent publication US20190343860A1 (Saint Louis University, priority 2016, published 2019).
Like-named read-outs stand apart in the source and are kept apart here.

Experiments:
[1] = biological target: T1, hA1AR (Homo sapiens, UniProt P30542); conditions: species h; inhibition of binding at 10 μM; tested in ref 26; cited from earlier work
T1 construct: expressed in transfected cells
T1 sequence (P30542 1-326): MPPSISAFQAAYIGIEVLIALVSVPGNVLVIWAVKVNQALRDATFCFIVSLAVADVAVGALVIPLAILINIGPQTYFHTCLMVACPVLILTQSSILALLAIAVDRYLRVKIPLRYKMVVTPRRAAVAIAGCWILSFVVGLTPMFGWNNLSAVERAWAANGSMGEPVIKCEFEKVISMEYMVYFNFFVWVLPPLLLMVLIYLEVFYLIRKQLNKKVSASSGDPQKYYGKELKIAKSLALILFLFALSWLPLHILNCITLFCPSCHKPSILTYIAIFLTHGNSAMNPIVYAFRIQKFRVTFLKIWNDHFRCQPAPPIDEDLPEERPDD

[2] = biological target: T2, mA1AR (Mus musculus, UniProt Q60612); assay: Radioligand binding, membranes of HEK293 cells stably expressing mA1AR; conditions: species m; inhibition of binding at 10 μM
T2 construct: expressed in transfected cells
T2 sequence (Q60612 1-326): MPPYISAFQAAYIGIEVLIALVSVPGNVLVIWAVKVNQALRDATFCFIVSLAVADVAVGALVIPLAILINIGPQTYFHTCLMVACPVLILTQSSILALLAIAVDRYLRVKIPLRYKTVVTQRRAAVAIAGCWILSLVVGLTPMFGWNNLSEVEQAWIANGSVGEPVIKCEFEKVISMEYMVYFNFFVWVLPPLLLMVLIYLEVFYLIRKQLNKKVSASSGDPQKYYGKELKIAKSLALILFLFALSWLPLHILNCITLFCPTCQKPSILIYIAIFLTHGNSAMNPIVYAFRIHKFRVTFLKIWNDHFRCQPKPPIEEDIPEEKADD

[3] = biological target: T3, hA3AR (Homo sapiens, UniProt P0DMS8); assay: cAMP assay, inhibition of forskolin-stimulated cAMP in hA3AR-transfected CHO cells; type: cell-based; conditions: species h; percentage of maximal effect of 5′-N-ethylcarboxamidoadenosine 43, each at 10 μM
T3 construct: expressed in transfected cells
T3 sequence (P0DMS8 1-318): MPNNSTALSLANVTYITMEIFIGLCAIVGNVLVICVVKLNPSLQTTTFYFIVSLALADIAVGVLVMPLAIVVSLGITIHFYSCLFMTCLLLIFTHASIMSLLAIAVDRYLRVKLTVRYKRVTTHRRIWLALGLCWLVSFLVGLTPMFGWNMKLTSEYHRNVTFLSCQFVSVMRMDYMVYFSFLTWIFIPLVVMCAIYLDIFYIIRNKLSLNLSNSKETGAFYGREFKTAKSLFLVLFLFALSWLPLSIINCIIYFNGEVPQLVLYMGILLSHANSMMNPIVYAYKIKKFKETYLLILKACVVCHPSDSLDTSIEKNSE

[4] = biological target: T4, hA2AAR (Homo sapiens, UniProt P29274); conditions: species h; inhibition of binding at 10 μM; tested in ref 26; cited from earlier work
T4 construct: expressed in transfected cells
T4 sequence (P29274 whole entry): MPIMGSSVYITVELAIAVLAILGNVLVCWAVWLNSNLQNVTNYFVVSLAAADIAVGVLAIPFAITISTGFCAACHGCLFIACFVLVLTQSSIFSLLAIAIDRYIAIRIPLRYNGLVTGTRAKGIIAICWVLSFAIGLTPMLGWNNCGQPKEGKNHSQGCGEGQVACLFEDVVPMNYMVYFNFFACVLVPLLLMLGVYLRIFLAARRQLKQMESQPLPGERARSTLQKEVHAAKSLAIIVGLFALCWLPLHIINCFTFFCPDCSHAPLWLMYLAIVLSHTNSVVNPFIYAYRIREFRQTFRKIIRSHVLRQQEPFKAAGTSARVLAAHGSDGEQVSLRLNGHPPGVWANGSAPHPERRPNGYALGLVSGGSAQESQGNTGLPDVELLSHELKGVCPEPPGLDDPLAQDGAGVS

[5] = biological target: T5, mA2AAR (Mus musculus, UniProt Q60613); assay: Radioligand binding, membranes of HEK293 cells stably expressing mA2AAR; conditions: species m; inhibition of binding at 10 μM
T5 construct: expressed in transfected cells
T5 sequence (Q60613 whole entry): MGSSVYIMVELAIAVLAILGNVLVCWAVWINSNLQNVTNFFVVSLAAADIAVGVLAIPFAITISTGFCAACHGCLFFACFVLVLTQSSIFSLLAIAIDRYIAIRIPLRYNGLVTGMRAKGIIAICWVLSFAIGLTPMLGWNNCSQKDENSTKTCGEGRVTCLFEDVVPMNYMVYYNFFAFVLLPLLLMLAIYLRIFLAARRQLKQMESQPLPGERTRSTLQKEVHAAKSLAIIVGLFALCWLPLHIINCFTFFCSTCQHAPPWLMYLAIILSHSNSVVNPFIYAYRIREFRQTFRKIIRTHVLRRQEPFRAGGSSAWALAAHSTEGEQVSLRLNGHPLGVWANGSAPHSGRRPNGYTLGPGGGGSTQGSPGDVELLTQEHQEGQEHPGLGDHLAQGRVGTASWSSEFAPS

[6] = system: PNSA mitochondria (saphenous nerve explants); assay: ATP production in saphenous nerve explants after direct drug application; design: species or system rat; conditions: 1 μM
Experimental: FIG. 14. […] Mean±SEM, n=6/group *P=0.019 vs, t-test
ATP assays. Saphenous nerves were harvested from rats 25 days after the initiation of chemotherapy treatments, then minced & teased apart as previously described. Saphenous nerve explants were transferred to MiR05 respiratory buffer & baseline ATP samples were taken after 5 min or after 15 min treatment with MRS5980 or vehicle. ADP (1 mM), glutamate (5 mM), succinate (5 mM), […] (5 mM) were added for 5 min & samples were taken for ATP. ATP levels were measured by a flash luciferin-luciferase assay (Promega Enliten ATP Assay; Promega, Madison, Wis.) & normalized to citrate synthase activity (Sigma, St Louis, Mo.) in explants homogenates.

[7] = system: isolated mouse liver mitochondria; assay: Mitochondrial membrane potential (ΔΨm), TMRM flow cytometry of isolated mitochondria; type: biochemical; conditions: n=1
Experimental: FIG. 12. MRS5980 reduces ADP-dependent dissipation of mitochondrial membrane potential (ΔΨm). ADP (1 mM) in the presence of Complex I and II substrates reduced the ΔΨm in isolated mouse liver mitochondrial (decreased TMRM signal). The degree of dissipation ΔΨm was lessened with MRS5980 (10 μM) treatment prior to adding ADP n=1, 10,000 mitochondria counted/sample.
FIG. 13. MRS5980 reduces calcium-dependent dissipation of mitochondrial ΔΨm. The addition of Ca^2+ (0.5-15 μM) to isolated mouse liver mitochondria reduced the mitochondria ΔΨm in (decreased TMRM signal). The mitochondrial ΔΨιη was sustained with MRS5980 (10 μM) treatment. n=1, 10,000 mitochondria counted/sample.
Mitochondrial membrane potential (ΔΨm). Mitochondria from mouse & rat liver were isolated for flow cytometry as previously described. Mitochondria (57 μg) were loaded with Mitotracker DeepRed FM (50 nM) & TMRM (100 nM). Mitochondria were then treated for 5 min with MRS5980 (10 μM) or vehicle then stimulated with ADP (1 mM) or Ca^2+ (0-15 μM) for 1 min. Mitochondria (10,000 counts) were detected using Mitotracker Deep Red FM (Abs/EM 644/665 nm) signal & the ΔΨm state determined by the dynamic median fluorescence signal of TMRM using a FACSCanto II (BD Biosciences).

[8] = biological target: T4, hA2AAR; assay: Radioligand binding, membranes of HEK293 cells stably expressing hA2AAR; conditions: species h; inhibition of binding at 10 μM
[9] = biological target: T1, hA1AR; assay: Radioligand binding, membranes of CHO cells stably expressing hA1AR; conditions: species h; inhibition of binding at 10 μM
[10] = biological target: T6, mA3AR (Mus musculus, UniProt Q61618); assay: cAMP assay, inhibition of forskolin-stimulated cAMP in mAR-transfected HEK cells; type: cell-based; conditions: species m; percentage of maximal effect of 1a, from concentration-effect curves
T6 construct: expressed in transfected cells
T6 sequence (Q61618 1-319): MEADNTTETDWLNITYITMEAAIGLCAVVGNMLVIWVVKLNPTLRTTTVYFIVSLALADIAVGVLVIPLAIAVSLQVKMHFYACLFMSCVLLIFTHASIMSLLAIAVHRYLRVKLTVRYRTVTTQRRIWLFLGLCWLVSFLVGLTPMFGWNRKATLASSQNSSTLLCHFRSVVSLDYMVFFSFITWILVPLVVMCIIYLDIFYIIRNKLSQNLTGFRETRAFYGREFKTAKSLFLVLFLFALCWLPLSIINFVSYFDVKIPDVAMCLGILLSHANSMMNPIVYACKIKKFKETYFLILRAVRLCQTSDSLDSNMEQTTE

[11] = biological target: T6, mA3AR; assay: Radioligand binding, membranes of HEK293 cells stably expressing mA3AR; conditions: species m; inhibition of binding at 10 μM
[12] = system: intraepidermal nerve fibers (IENFs); conditions: rat, in vivo
[13] = system: intraepidermal nerve fibers (IENFs); assay: Incidence of intraepidermal nerve fibers (IENFs) in chemotherapy-treated rats; conditions: chemotherapeutic alone; p<0.05 vs. Naive
[14] = Oxaliplatin-induced mechano-hypersensitivity (paw withdrawal threshold, von Frey); type: in vivo, rat; conditions: oxaliplatin 5 days, 10 mg/kg cumulative dose
Source text: Mean±SEM, n=6/group, ANOVA with Bonferroni comparisons. *P<0.05 vs. day 0; #P<0.05 vs. vehicle &†P<0.05 vs. Oxaliplatin.

Row | % inhibition A1 [2] | % efficacy [3] [%] | % inhibition A2A [5] | SMILES | % inhibition A1 [1] | % inhibition A2A [4] | also measured
1 | (50% ± 5% | 101 ± 5.9 | (2% ± 1%) | CNC(=O)[C@@]12C[C@@H]1[C@@H](n1cnc3c(NCc4cccc(Cl)c4)nc(C#Cc4ccccc4)nc31)[C@H](O)[C@@H]2O [Cmpd 5] | (20% ± 3%) | (27% ± 3%) | 
2 |  |  |  | CNC(=O)[C@@]12C[C@@H]1[C@@H](n1cnc3c(NC)nc(C#Cc4ccc(Cl)s4)nc31)[C@H](O)[C@@H]2O [MRS5980] |  |  | ATP production following stimulation of Complex I and II ([6]; explants from oxaliplatin-treated rats, day 25): reverses oxaliplatin-induced deficiencies in ATP production; ATP production following stimulation of Complex I and II ([6]; explants from vehicle-treated rats): modestly enhanced ATP production; ADP-dependent dissipation of mitochondrial membrane potential (ΔΨm) ([7]; 10 μM prior to ADP (1 mM)): lessened; Calcium-dependent dissipation of mitochondrial ΔΨm ([7]; 10 μM, Ca2+ 0.5-15 μM): sustained
3 | (18% ± 2%) | 7.2 | (1% ± 2%) | O=S(=O)(O)c1ccc(CCNc2nc(C#Cc3ccccc3)nc3c2ncn3[C@H]2[C@H](O)[C@H](O)[C@@H]3C[C@@H]32)cc1 [Cmpd 16] |  |  | % inhibition A2A [8]: (15% ± 3%); % inhibition A1 [9]: (10% ± 5%)
4 | (39% ± 6%) | 4.1 ± 1.2 | (13% ± 2%) | O[C@@H]1[C@H](O)[C@@H]2C[C@@H]2[C@H]1n1cnc2c(NCCc3ccccc3)nc(C#Cc3ccccc3)nc21 [Cmpd 14] | (30% ± 8%) | (22% ± 5%) | 
5 |  | 98.6 ± 5.7 | (14% ± 4%) | CNC(=O)C12CC1C(n1cnc3c(NCc4cccc(Cl)c4)nc(C#Cc4ccc(S(=O)(=O)O)cc4)nc31)C(O)C2O (stereo not drawn) [Cmpd 6] |  |  | % inhibition A2A [8]: (23% ± 3%); % efficacy [10]: 95.7 ± 19.1%
6 | (47% ± 8%) | 7.0 ± 5.2 | (11% ± 1%) | CCNc1nc(C#Cc2ccccc2Cl)nc2c1ncn2[C@H]1[C@H](O)[C@H](O)[C@@H]2C[C@@H]21 [Cmpd 10] | (25% ± 11%) | (17% ± 6%) | % inhibition A3 [11]: (50% ± 9%)
7 | (15% ± 2%) | 98.2 ± 6.7 | (1% ± 1%) | CNC(=O)C12CC1C(n1cnc3c(NCc4cccc(Cl)c4)nc(C#Cc4cccc(S(=O)(=O)O)c4)nc31)C(O)C2O (stereo not drawn) [Cmpd 7] |  |  | % inhibition A2A [8]: (7% ± 6%); % inhibition A1 [9]: (16% ± 3%); % efficacy [10]: 89.3 ± 7.1%
8 | (49% ± 6%) | 0.8 ± 5.2 | (49% ± 2%) | CCNc1nc(C#Cc2ccccc2)nc2c1ncn2[C@H]1[C@H](O)[C@H](O)[C@@H]2C[C@@H]21 [Cmpd 9] | (36% ± 4%) | (42% ± 4%) | 
9 |  |  |  | CC(=O)O[C@H]1C(=O)[C@@]2(C)[C@H]([C@H](OC(=O)c3ccccc3)[C@]3(O)C[C@H](OC(=O)[C@H](O)[C@@H](NC(=O)c4ccccc4)c4ccccc4)C(C)=C1C3(C)C)[C@]1(OC(C)=O)CO[C@@H]1C[C@@H]2O [paclitaxel] |  |  | Incidence of IENFs vs. Naive rats [12]: statistically significantly fewer IENFs
10 |  | 13.8 ± 5.1 |  | O[C@@H]1[C@H](O)[C@@H]2C[C@@H]2[C@H]1n1cnc2c(NCc3cccc(Cl)c3)nc(C#Cc3ccccc3)nc21 [Cmpd 11] | (37% ± 4%) |  | 
11 |  |  |  | O=C1[O][Pt]2([NH][C@@H]3CCCC[C@H]3[NH]2)[O]C1=O [oxaliplatin, reference compound] |  |  | Incidence of IENFs vs. Naive rats [13]: statistically significantly fewer IENFs; Mechano-hypersensitivity (Paw Withdrawal Threshold) [14]: produces mechano-hypersensitivity
12 | (23% ± 1%) | 2.6 ± 1.3 | (16% ± %) | O[C@@H]1[C@H](O)[C@@H]2C[C@@H]2[C@H]1n1cnc2c(NCC(c3ccccc3)c3ccccc3)nc(C#Cc3ccccc3Cl)nc21 [Cmpd 15] | (26% ± 4%) | (22% ± 2%) | % inhibition A3 [11]: (54 ± 3%)
13 | (25% ± 5%) | 105.3 ± 9.8 | (1% ± 1%) | CNC(=O)C12CC1C(n1cnc3c(NCCc4ccccc4)nc(C#Cc4ccccc4)nc31)C(O)C2O (stereo not drawn) [Cmpd 17] |  |  | % inhibition A2A [8]: (32% ± 4%); % inhibition A1 [9]: (11% ± 3%); % efficacy [10]: 114.6 ± 14.6%
14 |  | 12.6 ± 4.0 | (8% ± 3%) | CNc1nc(C#Cc2ccccc2)nc2c1ncn2[C@H]1[C@H](O)[C@H](O)[C@@H]2C[C@@H]21 [Cmpd 8] | (18% ± 1%) | (18% ± 3%) | 
15 |  | 3.5 ± 3.2 | (0%) | O[C@@H]1[C@H](O)[C@@H]2C[C@@H]2[C@H]1n1cnc2c(NCc3cccc(Cl)c3)nc(C#Cc3ccc(-c4ccccc4)cc3)nc21 [Cmpd 13] | (48% ± 4%) | (12% ± 7%) | 
16 |  | 4.5 ± 4.9 |  | O[C@@H]1[C@H](O)[C@@H]2C[C@@H]2[C@H]1n1cnc2c(NCc3cccc(Cl)c3)nc(C#Cc3cccc(Cl)c3)nc21 [Cmpd 12] |  |  | 
